Laboratory results published in patent US20260021092A1, “STRUCTURE-BASED DESIGN OF A NOVEL CLASS OF DRUGS FOR NEURODEGENERATIVE DISEASE” (The Regents of the University of California, priority 2022, published 2026).

Columns and labels:
[1] = molecular target: T1, recombinant alpha-synuclein fibrils seeding HEK293T cells expressing YFP-fused A53T alpha-synuclein (Homo sapiens, UniProt P37840); assay: Alpha-synuclein biosensor cell seeding assay, recombinant fibrils; assay type: cell-based; set-up: number of fluorescent puncta (seeded aggregates): dose or concentration left out as unconfirmed; conditions: for number of fluorescent puncta (seeded aggregates): 48 hours pre-incubation
T1 construct: made in house; host or cells: seed: E. coli BL21(DE3) Gold; reporter: stably transfected HEK293T cells from the Marc Diamond lab
Text: It is thought that alpha-synuclein pathology propagates throughout the brain via a prion-like seeding mechanism^20. Alpha-synuclein aggregates in one cell can fragment and spread to neighboring cells, where they seed the aggregation of soluble protein. Molecules able to disaggregate pre-formed fibrils may be able to interrupt this process. To that end, we assessed if both compounds could mitigate intracellular seeding of αSyn fibrils using alpha-synuclein biosensor cells-HEK293T cells expressing A53T mutant alpha-synuclein fused with yellow fluorescent protein (YFP). At baseline, the fluorescently labeled alpha-synuclein remains soluble within the cell, visible as diffuse fluorescence. However, the liposome-mediated transduction of exogenous αSyn fibrils into the cells induces aggregation of the endogenous protein, and the aggregates can be visualized and quantified as fluorescent puncta within the cell.
HEK293T biosensor cells stably expressing YFP-fused A53T mutant alpha-synuclein, developed and provided by the lab of Marc Diamond at UTSW were used. […] Prior to adding to cells, the coincubated compound/fibril solution was sonicated for 5 minutes in a cuphorn water bath, then mixed for 20 minutes with Lipofectamine 2000 in OptiMEM (1:20 dilution) for 20 minutes. 10 uL of the inhibitor/fibril+Lipofectamine mixture was added to 90 uL of cells plated in black 96-well tissue culture plates in triplicate for each concentration of compound tested. The number of seeded aggregates was quantified using a Celigo Image Cytometer (Nexcelom) in the YFP channel. Images were processed in ImageJ, background fluorescence from unseeded cells was subtracted, and the number of particles per image were counted using the Particle Analyzer function. The quantity of aggregates in each well was normalized to cell confluence. Standard deviation between triplicates and a nonlinear regression curve was used to calculate IC50 values for dose response curves. High quality fluorescent images were obtained using a ZEISS Axio Observer D1 fluorescence microscope in the YFP channel.

[2] = molecular target: T2, MSA brain fibrils seeding HEK293T alpha-synuclein biosensor cells (Homo sapiens, UniProt P37840); assay: Alpha-synuclein biosensor cell seeding assay, MSA brain fibrils; assay type: cell-based; conditions: sub micromolar concentrations, 48 hours pre-incubation
T2 construct: Extraction of sarkosyl-insoluble alpha-synuclein fibrils from neuropathologically confirmed brain samples of patients diagnosed with MSA; from tissue; host or cells: seed: MSA patient brain; reporter: stably transfected HEK293T cells from the Marc Diamond lab
Protocol: Next, we tested the efficacy of the compounds to mitigate the intracellular seeding of MSA fibrils in biosensor cells. Brain-derived MSA fibrils robustly seed intracellular alpha-synuclein in HEK293T biosensor cells^21. […] Cells were imaged 48 hours and the number of fluorescent puncta per sample well was quantified.
HEK293T biosensor cells stably expressing YFP-fused A53T mutant alpha-synuclein, developed and provided by the lab of Marc Diamond at UTSW were used. Cells were grown in DMEM (Life Technologies, cat. 11965092) with FBS (10% vol/vol; Life Technologies, cat. A3160401), penicillin/streptomycin (1%; Life Technologies, cat. 15140122), and Glutamax (1%; Life Technologies, cat. 35050061), at 37° C. and 5% CO2 in a humidified incubator. Compounds were incubated with recombinant or patient-derived alpha-synuclein fibrils for 48 hours in OptiMEM media then applied to ˜70% confluent biosensor cells. Prior to adding to cells, the coincubated compound/fibril solution was sonicated for 5 minutes in a cuphorn water bath, then mixed for 20 minutes with Lipofectamine 2000 in OptiMEM (1:20 dilution) for 20 minutes. 10 uL of the inhibitor/fibril+Lipofectamine mixture was added to 90 uL of cells plated in black 96-well tissue culture plates in triplicate for each concentration of compound tested. The number of seeded aggregates was quantified using a Celigo Image Cytometer (Nexcelom) in the YFP channel. Images were processed in ImageJ, background fluorescence from unseeded cells was subtracted, and the number of particles per image were counted using the Particle Analyzer function. The quantity of aggregates in each well was normalized to cell confluence. Standard deviation between triplicates and a nonlinear regression curve was used to calculate IC50 values for dose response curves. High quality fluorescent images were obtained using a ZEISS Axio Observer D1 fluorescence microscope in the YFP channel. […]

[3] = molecular target: T3, recombinant alpha-synuclein fibrils (Homo sapiens, UniProt P37840); assay: Thioflavin T fluorescence of alpha-synuclein fibrils; assay type: biochemical; conditions: equimolar 100 μM:100 μM, 48 hours at 37° C. in 1×PBS
T3 construct: made in house; host or cells: E. coli BL21(DE3) Gold
Protocol: Both compounds were incubated with equimolar ratios of recombinant alpha-synuclein fibrils (100 μM:100 μM) for 48 hours at 37° C. in 1×PBS. After incubation, Thioflavin T (ThT), a fluorescent marker of amyloid fibrils, was added to the samples and ThT fluorescence was measured. EGCG was used as a positive control for comparison. […] Next, transmission electron microscopy (EM) was performed for each sample. […] To obtain a quantitative evaluation of fibril reduction, fibrils were first incubated for 72 hours with compound, then 10 micrographs from random grid points were taken for each sample, and the numbers of fibrils per image were counted (FIG. 5c). […] Western blot analysis, staining for alpha-synuclein, was performed for fibril samples incubated with compounds for 48 hours (FIG. 5d). For untreated alpha-synuclein fibrils, we see a prominent band at 14 kDa corresponding with protein monomer. We also observe a large smear of higher molecular weight alpha-synuclein species, likely corresponding to oligomers or small fibrils, and a dark band at the top of the gel likely from larger fibrils. […] These physical and chemical properties are more predictive of oral bioavailability and central nervous system penetration compared to EGCG, making them more viable candidates for further drug development.
Compounds were incubated quiescently with fibril samples (both recombinant and brain-derived) for 72 hours at 37° C.

[4] = molecular target: T3, recombinant alpha-synuclein fibrils; assay: TEM quantification of recombinant alpha-synuclein fibrils; assay type: biochemical; conditions: 72 hours with compound, 10 micrographs
Protocol: Both compounds were incubated with equimolar ratios of recombinant alpha-synuclein fibrils (100 μM:100 μM) for 48 hours at 37° C. in 1×PBS. After incubation, Thioflavin T (ThT), a fluorescent marker of amyloid fibrils, was added to the samples and ThT fluorescence was measured. EGCG was used as a positive control for comparison. […] Next, transmission electron microscopy (EM) was performed for each sample. […] To obtain a quantitative evaluation of fibril reduction, fibrils were first incubated for 72 hours with compound, then 10 micrographs from random grid points were taken for each sample, and the numbers of fibrils per image were counted (FIG. 5c). […] Western blot analysis, staining for alpha-synuclein, was performed for fibril samples incubated with compounds for 48 hours (FIG. 5d). For untreated alpha-synuclein fibrils, we see a prominent band at 14 kDa corresponding with protein monomer. […]
For all transmission electron microscopy (TEM), 6 μL of sample were added onto 400 mesh Formvar Carbon film copper mesh grids (Electron Microscopy Sciences), then incubated for four minutes. […] For quantitation of fibrils, […] TEM images were taken per experimental condition from random points throughout the grid. Fibril counts were manually quantified per image in a blinded fashion. […]

Row | Compound | number of fluorescent puncta (seeded aggregates) [1] | intracellular seeding by MSA brain fibrils [2] | ThT signal [3] | number of imaged fibrils per EM image [4] | seeding at low compound concentrations [1]
1 | O=C(O[C@@H]1Cc2c(O)cc(O)cc2O[C@@H]1c1cc(O)c(O)c(O)c1)c1cc(O)c(O)c(O)c1 [EGCG, epigallocatechin gallate] | dose-dependent reduction | very significant reduction in intracellular seeding | reduction in ThT signal |  | 
2 | Cc1cccc(C)c1NC(=O)Cn1nc(Cc2ccccc2)c2ccccc2c1=O [CNS-11g, 2-(4-benzyl-1-oxophthalazin-2-yl)-N-(2,6-dimethylphenyl)acetamide] | dose-dependent reduction in aggregates | very significant reduction in intracellular seeding | reduction in ThT signal | reduction in number of imaged fibrils | not seen
3 | Cc1cc(C)c(NC(=O)Cn2nc3c4c(cccc4c2=O)-c2ccccc2-3)c(C)c1 [CNS-11, N-mesityl-2-(3-oxoindeno[1,2,3-de]phthalazin-2(3H)-yl)acetamide] | dose-dependent reduction in aggregates | very significant reduction in intracellular seeding | reduction in ThT signal | reduction in number of imaged fibrils | initial increase of seeding
